Experimental data reported in US20240382475A1, “Quinazoline Derivative, Or Preparation Method Therefor And Use Thereof” (Zhejiang Hisun Pharmaceutical Co., Ltd., priority 2021, published 2024).

These compounds were tested against T1, KRAS-G12C/SOS1 (Homo sapiens, UniProt Q07889) (assay: Blocking the binding of KRAS G12C protein to SOS1 (Cisbio KRAS-G12C/SOS1 binding assay kit, TR-FRET)). Conditions: Tag1-SOS1 and Tag2-KRAS-G12C, TR-FRET 665/620; read-out: IC50 (nM) Inhibition of KRAS-G12C/SOS1 binding.
T1 construct: purchased Cisbio 63ADK000CB16PEG
T1 sequence (Q07889 1-1333): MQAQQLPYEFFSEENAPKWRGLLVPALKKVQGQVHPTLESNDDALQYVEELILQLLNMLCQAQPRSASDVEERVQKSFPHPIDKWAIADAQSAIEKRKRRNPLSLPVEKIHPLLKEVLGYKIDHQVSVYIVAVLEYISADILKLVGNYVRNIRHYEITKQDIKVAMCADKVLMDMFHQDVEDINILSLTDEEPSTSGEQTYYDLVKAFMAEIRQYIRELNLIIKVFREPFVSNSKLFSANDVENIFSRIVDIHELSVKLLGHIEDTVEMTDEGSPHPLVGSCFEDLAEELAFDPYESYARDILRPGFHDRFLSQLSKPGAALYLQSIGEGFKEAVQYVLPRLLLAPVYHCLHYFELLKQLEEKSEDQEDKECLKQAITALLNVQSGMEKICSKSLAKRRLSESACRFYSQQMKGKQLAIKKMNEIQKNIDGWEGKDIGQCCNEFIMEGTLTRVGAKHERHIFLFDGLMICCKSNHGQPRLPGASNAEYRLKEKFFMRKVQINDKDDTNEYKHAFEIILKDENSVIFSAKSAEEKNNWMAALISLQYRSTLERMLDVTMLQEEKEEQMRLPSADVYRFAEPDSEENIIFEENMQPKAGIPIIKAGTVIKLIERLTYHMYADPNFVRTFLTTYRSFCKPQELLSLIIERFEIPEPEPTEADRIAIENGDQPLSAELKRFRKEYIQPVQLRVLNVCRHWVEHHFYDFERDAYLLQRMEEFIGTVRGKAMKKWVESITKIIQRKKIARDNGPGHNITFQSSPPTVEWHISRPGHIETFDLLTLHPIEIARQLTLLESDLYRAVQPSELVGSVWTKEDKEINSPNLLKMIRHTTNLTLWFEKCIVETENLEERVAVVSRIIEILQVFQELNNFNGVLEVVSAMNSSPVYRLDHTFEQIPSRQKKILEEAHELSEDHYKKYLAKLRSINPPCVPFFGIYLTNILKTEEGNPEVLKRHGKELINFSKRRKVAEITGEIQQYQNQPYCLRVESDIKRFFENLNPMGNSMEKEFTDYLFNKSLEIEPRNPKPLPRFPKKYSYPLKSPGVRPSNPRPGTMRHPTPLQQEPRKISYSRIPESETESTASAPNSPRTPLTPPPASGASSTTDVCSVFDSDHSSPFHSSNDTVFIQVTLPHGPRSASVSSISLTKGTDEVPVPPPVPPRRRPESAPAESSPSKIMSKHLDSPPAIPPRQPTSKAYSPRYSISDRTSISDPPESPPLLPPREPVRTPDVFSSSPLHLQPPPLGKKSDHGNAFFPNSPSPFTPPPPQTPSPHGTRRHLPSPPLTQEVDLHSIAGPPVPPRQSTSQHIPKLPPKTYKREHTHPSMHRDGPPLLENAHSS
Source text: The following method was used to determine the abilities of compounds of the invention to block the interaction of SOS1 with the KRAS G12C protein in vitro. KRAS-G12C/SOS1 BINDING ASSAY KITS (Art. No. 63ADK000CB16PEG) from Cisbio was used in this method. Please refer to the kit instruction for detailed experimental operations.
The experimental process can be briefly described as follows: diluent buffer (Art. No. 62DLBDDF) was used to prepare a working solution with a concentration of 5× for Tag1-SOS1 and Tag2-KRAS-G12C protein. The test compounds were dissolved in DMSO to prepare storage solutions of 10 mM, and then the solutions were diluted with dilution buffer for later use. First, 2 μL of the test compound (the final concentrations of the reaction system were 10000 nM-0.1 nM) was added to the well, then 4 μL of Tag1-SOS1 5× working solution and 4 μL of Tag2-KRAS-G12C 5× working solution were added, and the above mixture was centrifuged, mixed, and stood for 15 minutes; then 10 μL of premixed anti-Tag1-Tb^3+ and anti-Tag2-XL665 were added, and the mixture was incubated at room temperature for 2 hours; finally, a microplate reader was used in […] mode to measure the fluorescence intensity of each well emitting wavelengths of 620 nm and […] under the excitation wavelength of 304 nm, and the fluorescence intensity ratio 665/620 in each well was calculated. Compared with the fluorescence intensity ratio of a control group (0.1% DMSO), the percentage inhibition rates of the test compounds at each concentration were calculated, and the IC50 values of the compounds were obtained by performing nonlinear regression analysis with logarithmic values of the compound concentration-inhibition rate by GraphPad Prism 5 software, which was shown in Table 1.

**Q.** How did the IC50 turn out when COc1cc2nc(C)nc(N[C@H](C)c3cccc(C#N)c3C)c2cc1N1CCOCC1 [Compound 1, (R)-3-(1-((7-methoxy-2-methyl-6-morpholinoquinazolin-4-yl)amino)ethyl)-2-methylbenzonitrile] was run?
**A.** The IC50 was 26.2 nM.

**Q.** For COc1cc2nc(C)nc(N[C@H](C)c3cccc(C#N)c3C)c2cc1N1CCN(C(C)=O)CC1 [Compound 2, (R)-3-(1-((6-(4-acetylpiperazin-1-yl)-7-methoxy-2-methylquinazolin-4-yl)amino)ethyl)-2-methylbenzonitrile], which IC50 is on record?
**A.** Its IC50 is 20.7 nM.

**Q.** With COc1cc2nc(C)nc(N[C@H](C)c3cccc(C#N)c3C)c2cc1N1CCC2(CCOCC2)CC1 [Compound 4, (R)-3-(1-((7-methoxy-2-methyl-6-(3-oxa-9-azaspiro[5.5]undecan-9-yl)quinazolin-4-yl)amino)ethyl)-2-methylbenzonitrile] as the compound, how does the IC50 read?
**A.** Its IC50 is 65.2 nM.

**Q.** How did the IC50 turn out when COc1cc2nc(C)nc(N[C@H](C)c3cccc(C#N)c3C)c2cc1N1CCC2(CC1)COC2 [Compound 5, (R)-3-(1-((7-methoxy-2-methyl-6-(2-oxa-7-azaspiro[3.5]nonan-7-yl)quinazolin-4-yl)amino)ethyl)-2-methylbenzonitrile] was run?
**A.** The IC50 was 28 nM.

**Q.** With COc1cc2nc(C)nc(N[C@H](C)c3cccc(C#N)c3C)c2cc1N1CCC2(CCN(C)C2=O)CC1 [Compound 7, (R)-3-(1-((7-methoxy-2-methyl-6-(2-methyl-1-oxo-2,8-diazaspiro[4.5]decan-8-yl)quinazolin-4-yl)amino)ethyl)-2-methylbenzonitrile] as the compound, how does the IC50 read?
**A.** Its IC50 is 35.7 nM.

**Q.** With COc1cc2nc(C)nc(N[C@H](C)c3cccc(C#N)c3C)c2cc1N1CCC(C#N)CC1 [Compound 8, (R)-1-(4-((1-(3-cyano-2-methylphenyl)ethyl)amino)-7-methoxy-2-methylquinazolin-6-yl)piperidine-4-carbonitrile] as the compound, how does the IC50 read?
**A.** Its IC50 is 62 nM.

**Q.** With COc1cc2nc(C)nc(N[C@H](C)c3cccc(C#N)c3C)c2cc1N1CCC(C)(O)CC1 [Compound 11, (R)-3-(1-((6-(4-hydroxy-4-methylpiperidin-1-yl)-7-methoxy-2-methylquinazolin-4-yl)amino)ethyl)-2-methylbenzonitrile] as the compound, how does the IC50 read?
**A.** The IC50 was 39.5 nM.

**Q.** COc1cc2nc(C)nc(N[C@H](C)c3cccc(C#N)c3C)c2cc1N1CCC2(CC1)CN(C(C)=O)C2 [Compound 19, (R)-3-(1-((6-(2-acetyl-2,7-diazaspiro[3.5]nonan-7-yl)-7-methoxy-2-methylquinazolin-4-yl)amino)ethyl)-2-methylbenzonitrile] was tested. Which IC50 did it give?
**A.** The IC50 was 22.3 nM.
